Tested on: 8-oxo-dG staining in the PFC of NVHL rats
Test: 8-oxo-dG labeling (DNA oxidation) in PFC of NVHL rats
Assay type: in vivo, Sprague-Dawley rats
Text: To assess oxidative stress, DNA oxidation with 8-oxo-7,8-dihydro-20-deoxyguanine (8-oxo-dG) labeling was quantified. […] 3-NT indicates nitration of proteins due to oxidative and nitrosative stress (Radi, 2004), and its increase in NVHL rats was prevented by NAC treatment during development (as shown in FIGS. 9A and 9B). […] A possible explanation for the levels of oxidative stress detected in the adult PFC following an NVHL is the reduced glutamatergic input from ventral hippocampus during development, as blocking NMDA receptors induces oxidative stress in PVI (Behrens et al., 2007).
To determine the types of interneurons expressing oxidative stress in NVHL rats, 8-oxo-dG with PV, calbindin (CB) and calretinin (CR) was co-labeled. […] About 50% of PVI were co-labeled with 8-oxo-dG, indicating oxidative stress is pervasive in this cell population. A marker of PVI maturation is Wisteria Floribunda agglutinin (WFA), a lectin that recognizes the perineuronal nets (PNN) enwrapping mature cortical PVI. […] PVI may be highly exposed to increased oxidative stress because they make up the majority of fast-spiking interneurons and their high energy metabolism may generate more reactive oxygen species than non-fast spiking neurons.
Animals: Timed-pregnant Sprague-Dawley rats were obtained at gestational days 13-15 from Charles River (Wilmington, MA) and were individually housed with free access to food and water in a temperature- and humidity-controlled environment with a 12:12h light/dark cycle (lights on at 7:00 AM). When pups reached P5, half of the dams received NAC in their drinking water. Pups were left undisturbed until P7-9 when healthy offspring were randomly separated and received either NVHL or sham surgery. At P21, male and female pups were either transcardially perfused with 4% paraformaldehyde for immunocytochemistry or weaned and housed in groups of two to three, counterbalanced across lesion status. NAC treatment lasted throughout adolescence until P50. After reaching adulthood (>P60), animals were either perfused with 4% paraformaldehyde for immunocytochemistry, perfused with artificial cerebrospinal fluid (aCSF) for slice electrophysiology, utilized for in vivo intracellular recordings, or tested for PPI or MMN.
Neonatal ventral hippocampal lesion surgery: Between P7 and P9, pups (15-20 g) received either an excitotoxic lesion of the ventral hippocampus (NVHL) or sham procedure, as previously described (Chambers and Lipska, 2011). Pups were anesthetized with hypothermia and secured to a Styrofoam platform attached to a stereotaxic frame (David Kopf Instruments, Tujunga, CA). […]

CC(=O)N[C@@H](CS)C(=O)O [NAC, N-acetyl cysteine]
effect on 8-oxo-dG labeling in PV interneurons (NVHL rats, developmental treatment): prevented | effect on increase in 8-oxo-dG staining in PFC (P21 NVHL rats, drinking water 900 mg/l from P5): completely prevented | effect on increase in 8-oxo-dG in PFC (P61 NVHL rats, drinking water 900 mg/l, P5 to P50): prevented | multiple markers of oxidative stress (adult NVHL rats, juvenile treatment, to levels comparable to control rats): decreased
